Where “and” joins values, the source holds several entries; their conditions need not be identical. Equal entries are not always repeated.
Assays:
Assay type in all cases: cell-based
C2C12 cells = test: C2C12 myogenic assay; set-up: key to myogenic assay: + indicates that the compound had an effect; -: − indicates that there was no significant effect in the respective assay; key to mean fusion index: ratio of nuclei fused per area to total nuclei in field; details: for MYH4 (MFI) / fusion index, % of DMSO control: Fig. 5, equals mean of the two '% of control' values of the 4th table; for mean MFI / ratio MFI/MBI: MYH4; for ratio MFI/MBI / ratio nuclei %: single images; for myogenic diff.: overview in comparison to compound C, Supplemental Fig. 9; for myogenic assay: summary Fig. 8E
Source text: To corroborate their status as Notch inhibitors, we tested four of the five compounds (A, C, D, E) in an orthogonal assay for Notch function. Notch signalling plays an important role in myogenic differentiation, and blocking Notch signalling promotes myogenic differentiation in the myoblast cell line C2C12[27] (Fig. 5A). C2C12 cells can be maintained as myoblasts but upon serum starvation spontaneously differentiate to MYH4-positive multinucleated myotubes, a process which is accelerated by Notch blockade.
8000 C2C12 cells were seeded on gelatin (0.1%, Sigma-Aldrich, cat #G2500) coated cover slides (BD Bioscience) and cultivated in proliferation medium. For gelatin coating, 8-well cover slide chambers (BD Bioscience) were incubated for 60 min with 0.1% gelatin in PBS. The remaining liquid was aspirated, and gelatin was allowed to dry for 24 h. Cover slides were stored at 4 °C until use. Upon reaching 85% confluence cell culture medium was exchanged to differentiation medium to enhance differentiation into myocytes/myotubes. Cells were then treated with 10 µM of the respective compound for five days and DMSO-treated cells served as a base-line control. Next, cells were washed with 1 × cold PBS (ThermoFisher, cat #10010023) fixed with 4% paraformaldehyde (PFA, Sigma-Aldrich, cat #1.00496) in PBS for 10 min at room temperature and washed again with 1 × PBS. Fixed cells were either stored at 4 °C in PBS or directly processed for immunocytochemistry staining: For immunocytochemistry, cells were permeabilized for 10 min in 0.1% TritonX-100 / PBS, then washed in PBS and unspecific bindings sites were blocked in protein free blocking solution (DAKO, cat # × 0909) for 30 min at room temperature, followed by two times washing in PBS. Then, cells were incubated with primary antibody MYH4 (ThermoFisher) in blocking solution and 0.1% TritonX-100 in PBS for 1 h at room temperature. Next, cells were washed three times in PBS and incubated with secondary Alexa fluorophore coupled antibody (Invitrogen) in a 1:400 dilution. Labeling of F-actin filaments was conducted by phalloidin-TRITC (Sigma-Aldrich, cat # P1951) in a 1:2500 dilution. Cells were washed three times in PBS and incubated with DAPI (BD Bioscience cat # 564907) for 5 min at room temperature to stain DNA/nuclei. Finally, slides were fixed with mounting medium (ProLong Antifade mounting medium, ThermoFisher, cat #P36934). Bright field and immunocytochemistry images were taken using the SP8 LSM (Leica) at different magnifications and images were recorded as Z-stacks. Images were processed using the FijI (ImageJ) software. As controls, wells with and without differentiation medium were also stained to set the baseline and contrast the differences and stainings of cells with only secondary antibodies were used as negative controls to assess cross-reactivity and background staining. For calculating the MYH4 median fluorescence intensity (MFI) images have been converted into 8-bit greyscale and a standard color threshold was applied (ImageJ). Next, MFI signals per area were measured using ImageJ and divided by the median background intensity (MBI). The nuclei fusion index was calculated as the ratio of nuclei fused per area divided by the total number of nuclei in the field. A minimum of three images has been recorded for the calculations, and two replicate experiments were conducted. For calculations of MFI and fusion index see Supplemental Table 5.

MDA-MB-231 cells = test: Three dose response gene expression analysis (qRT-PCR); details: 0.1, 1 and 10 µM, 24 h
Protocol: (§1) Total RNA from cell lines was isolated using the RNeasy Mini kit (cat #74104, Qiagen), according to the manufacturer’s instructions. qRT-PCR was performed as described elsewhere[51] with some minor modifications: RNA was reverse transcribed to cDNA using iScript Reverse Transcription Supermix (cat # 1708841, Bio-rad). cDNA was then diluted 1:5 in nuclease free H20. qRT-PCR was performed on a C1000 Touch thermal cycler (Bio-rad) and gene expression was detected with SsoAdvanced Universal SYBR Green Supermix (cat # 1725274, Bio-rad). Gene expression was determined by normalizing to GAPDH mRNA expression levels and fold expression change was calculated using the ΔΔCT method (ΔΔCT = ΔCt sample − Δct control). Primers used in qPCR are shown in Supplemental Table 9.
(§2) Adherent breast cancer cells were seeded in 24-well cell culture plates (ThermoFisher, Nunc, Delta surface, cat #144530) and T-ALL cells growing in suspension (Jurkat, RPMI-8402) were seeded in non-adherent 24-well plates (ThermoFisher, Nunc, cat […]). 60.000 cells were seeded and treated with 0.1, 1 and 10 µM of each compound. […] Cells were harvested 24 h post treatment and RNA isolation and gene expression analysis (qRT-PCR) was performed as described above.

[1] = test system: T-ALL cells (Jurkat, RPMI-8402); test: as above; details: 0.1, 1 and 10 µM, 24 h; for HES1 and c-MYC expression: T-ALL cells; for c-MYC expression: T-ALL cell lines
Protocol: as §1, §2

NOTCH1 = test: Western blot analysis of S3-cleaved NOTCH1 (a-N1-V1744); details: for V1744 (activated N1) band intensity / V1744 normalised to beta-actin signals / V1744, DMSO as reference: Western blot quantification, Supplemental Figure 4K; for V1744, DMSO as reference: DMSO = 1
Protocol: Cells were washed in ice-cold PBS and incubated for 30 min on ice with RIPA cell lysis buffer (Thermofisher, cat #89900) containing protease and phosphatase inhibitors (Thermofisher, cat #78442), scraped off and homogenized using a 25G syringe, and subsequently centrifugated for 10 min at > 13,000xg. […] After electrophoresis, gels were placed directly onto a TransBlot Turbo PVDF or nitrocellulose membrane (Bio-rad, cat #1704157 and cat #1704159) and transferred using the “HIGH MW” protocol (Bio-Rad). Subsequently, membranes were blocked for 1 h at room temperature using Clear Milk Blocking Buffer (ThermoFisher, cat #37587) supplemented with 0.1% Tween20 (Sigma-Aldrich, cat #P1379). Detection of antibody binding was performed by using Clarity Western ECL-Substrate (Bio-rad, cat #1705060S). Beta-Actin protein signals were used as a loading control. Western blot membranes were in some experiments stripped after development (indicated in the figure in each respective case) by washing the membranes twice for 10 min in PBS, followed by incubation in membranes in western blot stripping buffer (ThermoFisher, cat #21059) for 30 min at room temperature and gentle agitation. Stripped membranes were washed twice with PBS and incubated for 30 min in blocking buffer before incubation with primary antibody. A list of all antibodies used in this study is provided in Supplemental Table 6. Uncropped western blot images are provided in […]. Protein expression levels of western blot bands were quantified using Fiji (V.2.16) with beta-Actin signals for normalisation (Supplemental Table 8). Uncropped western blot images are provided in Supplemental Fig. 10.

[2] = 10 µM, five days, DMSO ctrl = 100, experiments #1 and #2
[3] = 10 µM, five days, experiments #1 and #2
[4] = 10 µM, five days, experiments #1 and #2, listed as GSI

Structure (SMILES)	expression of the differentiation marker MYH4 (C2C12 cells; 10 µM, five days)	mean MFI in % of control (C2C12 cells; [2])	MYH4 (MFI) (C2C12 cells; 10 µM, five days)	fusion index, % of DMSO control (C2C12 cells; 10 µM, five days)	mean MFI (C2C12 cells; [3])	ratio MFI/MBI (C2C12 cells; [3])	mean fusion index (C2C12 cells; [3])	ratio nuclei % (C2C12 cells; [3])	myogenic diff. (C2C12 cells)	myogenic assay (C2C12 cells)	HES4 expression (MDA-MB-231 cells)	c-MYC expression (MDA-MB-231 cells)	HES1 and c-MYC expression [1]	V1744 (activated N1) band intensity (NOTCH1)	V1744 normalised to beta-actin signals (NOTCH1)	V1744, DMSO as reference (NOTCH1)	transcript levels of the Notch ligand Jagged1 (MDA-MB-231 cells)	further results
COc1cccc(CNc2ccc(N3CCCCC3)cc2)c1OCc1cccs1 [compound C]	elevated expression	343.9 % of control and 318.1 % of control	331.0	268.7	4.2	4.0 and 4.4	5.3	3.3% and 7.3%	yes	+	upregulated	downregulation	dose-dependent downregulation	14466.8	0.8	0.5945		
CC(C)(C(=O)NCC(F)(F)C(F)(F)F)C(=O)N[C@@H]1C(=O)Nc2ccccc2-c2ccccc21 [RO4929097, reference compound]	elevated expression								yes			did not reduce		4624.07	0.211	0.1638		mean MFI in % of control (C2C12 cells; 10 µM, five days, DMSO ctrl = 100, experiments #1 and #2, listed as GSI): 296.5 % of control and 351.1 % of control; mean MFI (C2C12 cells; [4]): 5.5 and 3.6; mean fusion index (C2C12 cells; [4]): 6.7 and 4.2; ratio nuclei % (C2C12 cells; [4]): 6.3% and 6.4% and 7.6% and 4.9% and 3.4%; c-MYC expression [1]: consistently reduced
Cc1ccc2[nH]c3c(c2c1)CCOC31CCN(Cc2ccccc2-c2ccccc2)CC1 [compound B]										-	reduced		dose-dependent downregulation	10802.4	0.6	0.4585	reduced	
Cc1nn(-c2nc3ccccc3s2)c(O)c1C1OC(=O)c2ccccc21 (centres unmarked) [compound E]	elevated expression	561.7 % of control and 394.0 % of control	477.8	290.1	6.9 and 6.2	6.3 and 6.7 and 7.6 and 5.1 and 6.8	6.2 and 7.6	5.9% and 6.4% and 6.2% and 7.9% and 6.8% and 8.0%		+			dose-dependent downregulation	44303.5	1.9	1.451	reduced	HES1 expression (MDA-MB-231 cells): downregulated
CCc1c(C(=O)N(C)Cc2cnn(C(C)C)c2)[nH]c2ccccc12 [compound A]	elevated expression	469.2 % of control	476.6	210.8	7.4 and 5.9	6.1 and 6.4 and 7.3 and 7.5 and 5.2	4.1 and 7.3	2.9% and 4.4% and 7.7% and 8.1% and 6.0% and 5.0%		+	reduced			20296.9	1.0	0.806	reduced	activity at 10 µM (C2C12 cells; Mus musculus, C2C12, 120 h, 10 µM, five days, DMSO ctrl = 100, experiments #1 and #2, read-out: mean MFI in % of control): 484%; HES1 expression (MDA-MB-231 cells): downregulated
CC(C)(C)c1ccc(Oc2ccc(N)cn2)cc1 [CB-103, reference compound]	increased MYH4 levels, although not reaching statistical significance	378.0 % of control and 227.3 % of control			3.6 and 4.6		5.7 and 3.1	5.0% and 6.3% and 5.7% and 3.1%	no			trend towards upregulation		20841.8	0.8	0.6093		c-MYC expression [1]: reduced
C[C@H](NC(=O)Cc1cc(F)cc(F)c1)C(=O)N[C@H](C(=O)OC(C)(C)C)c1ccccc1 [DAPT, reference compound]																		S3-processing of Notch1ΔE (Western blot) (NOTCH1; clone A (#A1-11), Fig. 1F): almost completely abolished

Reference: article PMC13242511, “Disrupting Notch signalling by a small molecule inhibiting dihydroorotate dehydrogenase activity” (Scientific Reports, 2026)
